Assay results published in patent US20100240700A1, “PROPHYLACTIC PRETREATMENT WITH ANTIOXIDANTS” (MITOS PHARMACEUTICALS, INC., priority 2003, published 2010).

System: cerebral ischemia (infarcts) in patients with aneurysmal subarachnoid hemorrhage
Assay: clinical study of Tempol on prevention of cerebral ischemia during treatment of aneurysms (MRI-DWI infarct count and size)
Assay type: in vivo
Conditions: human patients, 1-300 mg/kg orally before and after surgical or endovascular treatment; MRI-DWI 1-3 days and 6 weeks post-treatment
Experimental: This example describes a clinical study to determine the effect of Tempol on the prevention of cerebral ischemia during treatment of aneurysms in human patients that have bled. Patients, having suffered aneurysmal subarachnoid hemorrhaging, undergo magnetic resonance imaging (MRI-DWI) to count the number of infarcts and measure their size. Either 1-300 mg/kg of Tempol or a placebo are orally administered to the human patients. Patients undergo treatment for subarachnoid hemorrhaging (e.g., surgical or endovascular). After surgery, 1-300 mg/kg of Tempol or a placebo are orally administered to the patients. 1-3 days post-treatment, follow up MRI-DWI is used to count and measure the size of infarcts. The number and size of the infarcts is also measured 6 weeks post-treatment using MRI-DWI.

SMILES: CC1(C)CC(O)CC(C)(C)N1[O] [Tempol, 4-hydroxy-2,2,6,6-tetramethylpiperidine-1-oxyl]
- number of infarcts (MRI-DWI) versus placebo: fewer
- size of infarcts (MRI-DWI) versus placebo: smaller sized
